This note sets out measurements from article PMC9415947 (Pharmaceuticals, 2022).

The target of one experiment is T1, PI3Kδ (Homo sapiens, UniProt O00329).
T1 construct: purchased Merck Millipore
Description: In vitro PI3K inhibition assay (ADP-Glo kinase assay), PI3Kδ. Type of experiment: biochemical. The conditions noted are these: mean of two independent experiments. The protocol: (§1) All compounds were tested in a biochemical assay that measured the inhibition of phosphatidylinositol […] production by PI3K isoforms using the ADP-Glo kinase assay (Promega). In addition, the effects of synthesized compounds on B cell proliferation were measured.
(§2) The potency and selectivity of compounds were assessed by measuring the ability of PI3K kinases to convert ATP to ADP during an enzymatic reaction in the presence of decreasing doses of tested compounds. The experiments were carried out using the ADP-Glo kinase assay kit (Promega), according to the manufacturer’s protocol. PI3Kα, PI3Kβ, PI3Kδ, and PI3Kγ have been purchased from Merck Millipore and phosphoinositol-4,5-bisphosphate (PIP2) lipid vesicles with phosphoserine from ThermoFisher Scientific were used as a substrate in the enzymatic reaction.
(§3) After the reaction, the ADP-Glo reagent and the kinase detection reagent were added sequentially with 40 min of incubation (25 °C, 600 rpm) after adding each reagent. Finally, the luminescence intensity was measured and the IC50 was calculated using GraphPad Prism 7 software. The presented results are the mean value of IC50 from at least two independent experiments.

A further experiment concerns the target T2, PI3Kγ (Homo sapiens, UniProt P48736).
T2 construct: purchased Merck Millipore
Description: In vitro PI3K inhibition assay (ADP-Glo kinase assay), PI3Kγ. Type of experiment: biochemical. The conditions noted are these: for IC50: mean of two independent experiments; for Fold Selectivity γ/δ: ratio IC50 PI3Kγ / IC50 PI3Kδ. Here is the method:
as §1, §2, §3

T1 sequence (O00329 whole entry, looked up): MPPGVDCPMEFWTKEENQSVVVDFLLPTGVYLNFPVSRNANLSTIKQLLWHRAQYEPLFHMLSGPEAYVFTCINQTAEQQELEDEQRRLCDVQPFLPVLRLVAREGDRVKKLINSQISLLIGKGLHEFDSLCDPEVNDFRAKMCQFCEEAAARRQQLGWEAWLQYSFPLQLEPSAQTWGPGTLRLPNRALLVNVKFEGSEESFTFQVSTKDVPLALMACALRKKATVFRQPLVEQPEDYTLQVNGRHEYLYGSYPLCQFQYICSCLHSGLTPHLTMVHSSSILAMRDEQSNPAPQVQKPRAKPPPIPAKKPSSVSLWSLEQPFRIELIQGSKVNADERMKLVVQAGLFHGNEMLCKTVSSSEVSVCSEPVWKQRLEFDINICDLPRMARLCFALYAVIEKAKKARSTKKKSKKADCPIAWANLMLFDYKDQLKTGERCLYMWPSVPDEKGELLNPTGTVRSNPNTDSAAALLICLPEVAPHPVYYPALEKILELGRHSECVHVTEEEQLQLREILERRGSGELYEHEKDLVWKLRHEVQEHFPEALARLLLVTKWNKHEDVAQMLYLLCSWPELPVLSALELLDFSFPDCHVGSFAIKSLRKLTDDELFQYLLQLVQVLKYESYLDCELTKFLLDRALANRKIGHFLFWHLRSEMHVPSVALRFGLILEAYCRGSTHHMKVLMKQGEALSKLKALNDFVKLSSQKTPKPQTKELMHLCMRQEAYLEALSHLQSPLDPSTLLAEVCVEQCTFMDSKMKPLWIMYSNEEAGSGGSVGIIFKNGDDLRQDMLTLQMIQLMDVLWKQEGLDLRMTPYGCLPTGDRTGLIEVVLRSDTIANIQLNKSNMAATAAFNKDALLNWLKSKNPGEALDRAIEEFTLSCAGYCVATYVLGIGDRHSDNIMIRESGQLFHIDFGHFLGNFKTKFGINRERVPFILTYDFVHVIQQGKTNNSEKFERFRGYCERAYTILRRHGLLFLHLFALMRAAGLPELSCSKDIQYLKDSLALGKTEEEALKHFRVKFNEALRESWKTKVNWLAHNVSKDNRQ
T2 sequence (P48736 whole entry): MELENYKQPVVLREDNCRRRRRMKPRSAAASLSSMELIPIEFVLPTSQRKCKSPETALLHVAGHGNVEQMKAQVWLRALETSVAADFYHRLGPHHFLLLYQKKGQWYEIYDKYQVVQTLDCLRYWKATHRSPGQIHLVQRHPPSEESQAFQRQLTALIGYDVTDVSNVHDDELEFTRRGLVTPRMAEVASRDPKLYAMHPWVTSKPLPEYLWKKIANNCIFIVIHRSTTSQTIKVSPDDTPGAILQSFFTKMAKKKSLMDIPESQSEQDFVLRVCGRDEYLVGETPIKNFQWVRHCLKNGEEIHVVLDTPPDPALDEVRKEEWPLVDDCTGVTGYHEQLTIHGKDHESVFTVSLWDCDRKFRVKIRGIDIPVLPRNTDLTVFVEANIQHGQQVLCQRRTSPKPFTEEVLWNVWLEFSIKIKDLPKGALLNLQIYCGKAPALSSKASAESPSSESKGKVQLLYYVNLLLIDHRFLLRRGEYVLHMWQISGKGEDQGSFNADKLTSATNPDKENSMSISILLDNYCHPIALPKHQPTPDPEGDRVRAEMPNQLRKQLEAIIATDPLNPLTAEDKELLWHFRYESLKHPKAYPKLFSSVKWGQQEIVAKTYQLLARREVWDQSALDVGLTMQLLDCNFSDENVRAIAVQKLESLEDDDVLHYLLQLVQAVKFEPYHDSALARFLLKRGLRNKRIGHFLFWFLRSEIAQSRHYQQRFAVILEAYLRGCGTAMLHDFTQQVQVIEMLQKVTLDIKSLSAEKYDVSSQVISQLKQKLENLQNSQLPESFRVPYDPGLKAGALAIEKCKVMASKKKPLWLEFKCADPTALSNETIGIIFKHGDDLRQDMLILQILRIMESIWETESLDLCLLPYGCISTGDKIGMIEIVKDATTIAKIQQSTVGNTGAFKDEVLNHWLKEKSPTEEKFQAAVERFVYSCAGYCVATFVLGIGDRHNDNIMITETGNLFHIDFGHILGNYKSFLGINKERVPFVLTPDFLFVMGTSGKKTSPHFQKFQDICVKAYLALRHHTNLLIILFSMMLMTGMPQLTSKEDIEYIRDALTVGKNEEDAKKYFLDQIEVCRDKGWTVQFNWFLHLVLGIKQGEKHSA

On PI3Kδ, `O=C(c1cc2nc(-n3c(C(F)F)nc4ccccc43)cc(N3CCOCC3)n2n1)N1CCC(O)CC1` [Compound 53, 1-{5-[2-(difluoromethyl)-1H-1,3-benzimidazol-1-yl]-7-(morpholin-4-yl)pyrazolo[1,5-a]pyrimidine-2-carbonyl}piperidin-4-ol] gave an IC50 of 195 nM. Also, on PI3Kγ, half-maximal inhibition (IC50) required 2080 nM and the “Fold Selectivity γ/δ” value was 11.

On to `CN1CCN(C(=O)c2cc3nc(-n4c(C(F)F)nc5ccccc54)cc(N4CCOCC4)n3n2)CC1` [Compound 56, 2-(difluoromethyl)-1-[2-(4-methylpiperazine-1-carbonyl)-7-(morpholin-4-yl)pyrazolo[1,5-a]pyrimidin-5-yl]-1H-1,3-benzimidazole], for which the IC50 turned out to be 768 nM at PI3Kδ and 11400 nM at PI3Kγ.

Regarding `CN1CCN(Cc2cc3nc(-n4c(C(F)F)nc5ccccc54)cc(N4CCOCC4)n3n2)CC1` [Compound 37, 2-(difluoromethyl)-1-{2-[(4-methylpiperazin-1-yl)methyl]-7-(morpholin-4-yl)pyrazolo[1,5-a]pyrimidin-5-yl}-1H-1,3-benzimidazole], the IC50 against PI3Kδ stood at 351 nM. In addition, at PI3Kγ, the midpoint of inhibition, the IC50, lay at 17700 nM and the “Fold Selectivity γ/δ” value was found to be 50.

As to `O[C@H]1CCN(Cc2cc3nc(-n4c(C(F)F)nc5ccccc54)cc(N4CCOCC4)n3n2)C1` [Compound 21, (3S)-1-({5-[2-(difluoromethyl)-1H-1,3-benzimidazol-1-yl]-7-(morpholin-4-yl)pyrazolo[1,5-a]pyrimidin-2-yl}methyl)pyrrolidin-3-ol], at PI3Kδ, the IC50 was 956 nM. In addition, on PI3Kγ, half-maximal inhibition (IC50) required 10900 nM and the “Fold Selectivity γ/δ” value is 11.

On to `O=C(c1cc2nc(-n3c(C(F)F)nc4ccccc43)cc(N3CCOCC3)n2n1)N1CCC(N2CCOCC2)CC1` [Compound 52, 2-(difluoromethyl)-1-[7-(morpholin-4-yl)-2-[4-(morpholin-4-yl)piperidine-1-carbonyl]pyrazolo[1,5-a]pyrimidin-5-yl]-1H-1,3-benzimidazole], for which, on PI3Kδ, 92 nM corresponded to half-maximal inhibition (IC50). Further, at PI3Kγ, the IC50 is 5950 nM and the “Fold Selectivity γ/δ” value stood at 65.

In turn, `N#CC1CCN(Cc2cc3nc(-n4c(C(F)F)nc5ccccc54)cc(N4CCOCC4)n3n2)CC1` [Compound 32, 1-({5-[2-(difluoromethyl)-1H-1,3-benzimidazol-1-yl]-7-(morpholin-4-yl)pyrazolo[1,5-a]pyrimidin-2-yl}methyl)piperidine-4-carbonitrile] gave an IC50 at PI3Kδ of 192 nM. On PI3Kγ, the IC50 is 3150 nM and the “Fold Selectivity γ/δ” value turned out to be 16.

On to `O[C@@H]1CCN(Cc2cc3nc(-n4c(C(F)F)nc5ccccc54)cc(N4CCOCC4)n3n2)C1` [Compound 22, (3R)-1-({5-[2-(difluoromethyl)-1H-1,3-benzimidazol-1-yl]-7-(morpholin-4-yl)pyrazolo[1,5-a]pyrimidin-2-yl}methyl)pyrrolidin-3-ol], for which the IC50 against PI3Kδ came to 979 nM; against PI3Kγ, 8420 nM. Also, the “Fold Selectivity γ/δ” value at PI3Kγ worked out at 8.6.

As to `FC(F)c1nc2ccccc2n1-c1cc(N2CCOCC2)n2nc(CN3CCC(N4CCOCC4)CC3)cc2n1` [Compound 33, 2-(difluoromethyl)-1-[7-(morpholin-4-yl)-2-{[4-(morpholin-4-yl)piperidin-1-yl]methyl}pyrazolo[1,5-a]pyrimidin-5-yl]-1H-1,3-benzimidazole], on PI3Kδ, the midpoint of inhibition, the IC50, lay at 276 nM. In addition, on PI3Kγ, the IC50 stood at 4800 nM and the “Fold Selectivity γ/δ” value is given as 17.

For the compound `O=C(c1cc2nc(-n3c(C(F)F)nc4ccccc43)cc(N3CCOCC3)n2n1)N1CCOCC1` [Compound 46, 2-(difluoromethyl)-1-[7-(morpholin-4-yl)-2-(morpholine-4-carbonyl)pyrazolo[1,5-a]pyrimidin-5-yl]-1H-1,3-benzimidazole], the midpoint of inhibition against PI3Kδ, the IC50, lay at 226 nM. Further, on PI3Kγ, half-maximal inhibition (IC50) required 8540 nM and the “Fold Selectivity γ/δ” value is listed as 38.

At PI3Kδ, `CC(C)(C)N1CCN(C(=O)c2cc3nc(-n4c(C(F)F)nc5ccccc54)cc(N4CCOCC4)n3n2)CC1` [Compound 40, 1-[2-(4-tert-butylpiperazine-1-carbonyl)-7-(morpholin-4-yl)pyrazolo[1,5-a]pyrimidin-5-yl]-2-(difluoromethyl)-1H-1,3-benzimidazole] returned an IC50 of 84 nM. At PI3Kγ, it took 48800 nM to reach half-maximal inhibition (IC50) and the “Fold Selectivity γ/δ” value turned out to be 581.

Compound `NC1CCN(Cc2cc3nc(-n4c(C(F)F)nc5ccccc54)cc(N4CCOCC4)n3n2)C1` (centres unmarked) [Compound 20, 1-({5-[2-(difluoromethyl)-1H-1,3-benzimidazol-1-yl]-7-(morpholin-4-yl)pyrazolo[1,5-a]pyrimidin-2-yl}methyl)pyrrolidin-3-amine] came in with an IC50 on PI3Kδ of 1890 nM. On PI3Kγ, it took 22100 nM to reach half-maximal inhibition (IC50) and the “Fold Selectivity γ/δ” value turned out to be 12.

`CC(C)(O)C1CCN(C(=O)c2cc3nc(-n4c(C(F)F)nc5ccccc54)cc(N4CCOCC4)n3n2)CC1` [Compound 41] returned an IC50 against PI3Kδ of 101 nM. At PI3Kγ, the concentration for half-maximal inhibition (IC50) is 2480 nM and the “Fold Selectivity γ/δ” value is 25.

At PI3Kδ, `NC(=O)C1CCN(C(=O)c2cc3nc(-n4c(C(F)F)nc5ccccc54)cc(N4CCOCC4)n3n2)CC1` [Compound 48, 1-{5-[2-(difluoromethyl)-1H-1,3-benzimidazol-1-yl]-7-(morpholin-4-yl)pyrazolo[1,5-a]pyrimidine-2-carbonyl}piperidine-4-carboxamide] showed an IC50 of 314 nM. Besides, at PI3Kγ, half-maximal inhibition (IC50) was put at 2790 nM and the “Fold Selectivity γ/δ” value is given as 9.

Turning to `CNC(=O)CN1CCN(C(=O)c2cc3nc(-n4c(C(F)F)nc5ccccc54)cc(N4CCOCC4)n3n2)CC1` [Compound 55, 2-(4-{5-[2-(difluoromethyl)-1H-1,3-benzimidazol-1-yl]-7-(morpholin-4-yl)pyrazolo[1,5-a]pyrimidine-2-carbonyl}piperazin-1-yl)-N-methylacetamide], the midpoint of inhibition on PI3Kδ, the IC50, lay at 82 nM. For the same compound, on PI3Kγ, the IC50 amounted to 2170 nM and the “Fold Selectivity γ/δ” value was 26.

Take `OC1CCN(Cc2cc3nc(-n4c(C(F)F)nc5ccccc54)cc(N4CCOCC4)n3n2)CC1` [Compound 34, 1-({5-[2-(difluoromethyl)-1H-1,3-benzimidazol-1-yl]-7-(morpholin-4-yl)pyrazolo[1,5-a]pyrimidin-2-yl}methyl)piperidin-4-ol]: the IC50 at PI3Kδ was 561 nM; on PI3Kγ, 4320 nM. Besides, the “Fold Selectivity γ/δ” value on PI3Kγ is on record as 7.7.

Regarding `C[C@@H]1COCCN1Cc1cc2nc(-n3c(C(F)F)nc4ccccc43)cc(N3CCOCC3)n2n1` [Compound 25, 2-(difluoromethyl)-1-(2-{[(3R)-3-methylmorpholin-4-yl]methyl}-7-(morpholin-4-yl)pyrazolo[1,5-a]pyrimidin-5-yl)-1H-1,3-benzimidazole], the values for the half-maximal inhibitory concentration (IC50) against PI3Kδ and on PI3Kγ were 647 nM and 1970 nM, respectively. Besides, at PI3Kγ, the “Fold Selectivity γ/δ” value was determined as 3.0.

For `CNC(=O)CN1CCN(Cc2cc3nc(-n4c(C(F)F)nc5ccccc54)cc(N4CCOCC4)n3n2)CC1` [Compound 36, 2-[4-({5-[2-(difluoromethyl)-1H-1,3-benzimidazol-1-yl]-7-(morpholin-4-yl)pyrazolo[1,5-a]pyrimidin-2-yl}methyl)piperazin-1-yl]-N-methylacetamide], the IC50 on PI3Kδ came out at 63 nM. Further, at PI3Kγ, the IC50 was found to be 1250 nM and the “Fold Selectivity γ/δ” value was determined as 20.

Regarding `CC(C)(C(N)=O)N1CCN(C(=O)c2cc3nc(-n4c(C(F)F)nc5ccccc54)cc(N4CCOCC4)n3n2)CC1` [Compound 42, 2-(4-{5-[2-(difluoromethyl)-1H-1,3-benzimidazol-1-yl]-7-(morpholin-4-yl)pyrazolo[1,5-a]pyrimidine-2-carbonyl}piperazin-1-yl)-2-methylpropanamide], the IC50 worked out at 74 nM at PI3Kδ and 3590 nM on PI3Kγ. The “Fold Selectivity γ/δ” value at PI3Kγ was determined as 48.

`OCC1CCCN1Cc1cc2nc(-n3c(C(F)F)nc4ccccc43)cc(N3CCOCC3)n2n1` (centres unmarked) [Compound 19, [1-({5-[2-(difluoromethyl)-1H-1,3-benzimidazol-1-yl]-7-(morpholin-4-yl)pyrazolo[1,5-a]pyrimidin-2-yl}methyl)pyrrolidin-2-yl]methanol]: on PI3Kδ, the IC50 turned out to be 1070 nM. Further, on PI3Kγ, it took 4470 nM to reach half-maximal inhibition (IC50) and the “Fold Selectivity γ/δ” value was determined as 4.2.

Turning to `FC(F)c1nc2ccccc2n1-c1cc(N2CCOCC2)n2nc(CNC3CCOCC3)cc2n1` [Compound 27, N-({5-[2-(difluoromethyl)-1H-1,3-benzimidazol-1-yl]-7-(morpholin-4-yl)pyrazolo[1,5-a]pyrimidin-2-yl}methyl)oxan-4-amine], the IC50 against PI3Kδ was 1810 nM. Moreover, on PI3Kγ, inhibition was half-maximal at 20500 nM (IC50) and the “Fold Selectivity γ/δ” value was 11.

For `OCC1CCN(Cc2cc3nc(-n4c(C(F)F)nc5ccccc54)cc(N4CCOCC4)n3n2)CC1` [Compound 31, [1-({5-[2-(difluoromethyl)-1H-1,3-benzimidazol-1-yl]-7-(morpholin-4-yl)pyrazolo[1,5-a]pyrimidin-2-yl}methyl)piperidin-4-yl]methanol], the IC50 against PI3Kδ amounted to 593 nM. On PI3Kγ, the IC50 worked out at 8320 nM and the “Fold Selectivity γ/δ” value is 14.

Take `CCOC(=O)C1CCCN(Cc2cc3nc(-n4c(C(F)F)nc5ccccc54)cc(N4CCOCC4)n3n2)C1` (centres unmarked) [Compound 26, 1-({5-[2-(difluoromethyl)-1H-1,3-benzodiazol-1-yl]-7-(morpholin-4-yl)pyrazolo[1,5-a]pyrimidin-2-yl}methyl)piperidine-3-carboxylate]: inhibition against PI3Kδ was half-maximal at 203 nM (IC50). For the same compound, at PI3Kγ, the IC50 is 4280 nM and the “Fold Selectivity γ/δ” value is 21.
